We go through three compounds from patent publication US20140221397A1, “FIBROSIS INHIBITOR” (Nippon Shinyaku Co., Ltd., priority 2008, published 2014).

In experiment [1] the test system is interstitial pneumonia model mice induced by bleomycin. Particulars: Non-Patent Document 1; cited from earlier work.
Experiment [2] relates to Human Lung fibroblasts. Put plainly: Collagen production (PIP) in human lung fibroblasts stimulated by TGF β1 (Test Example 3). The format is cell-based. Particulars: TGF β1 stimulation, 10 μL of 0.1, 1, 10 or 100 μM solution per well, 48 hours, FIG. 3. As for the experimental part: Human lung fibroblasts were seeded in 96-well plate at 5×10^3 cells/well and incubated in the growth medium in the same way as in Test Example 1 overnight. The fibroblasts were washed once with 100 μL of basal medium and 100 μL of basal medium was added thereto followed by incubating for 24 hours. They were further washed once with 100 μL of basal medium and then 80 μL/well of basal medium was added. A 0.1, 1, 10 or 100 μM solution of the compound A was added in an amount of 10 μL to each well. […] After incubating for 48 hours, the medium was recovered for measuring the concentration of the type I pro-collagen C terminal peptide (PIP) in the medium, and after an addition of 100 μL of the basal medium, the cell proliferation activity was measured using 3-(4,5-dimethyl-2-thiazolyl)-2,5-diphenyl-2H-tetrazolium bromide (MTT) (manufactured by Nacalai Tesque). Measurement of the cell proliferation activity was conducted in such a manner that 10 μL of a 5 mg/mL MTT stock solution was added to each well, and after incubation for 4 hours, 100 μL of a 0.04M isopropanol solution of hydrochloric acid was added to each well, followed by the absorbance measurement at 595 nm (reference wavelength: 655 nm) using a microplate reader. […]

In experiment [3] the test system is type I collagen α2 chain (COL 1α2) mRNA. Put plainly: COL 1α2 mRNA expression in human lung fibroblasts stimulated by TGF β1, real-time quantitative PCR (Test Example 4). The format is cell-based. To be noted: TGF β1 stimulation, 24 hours, corrected for GAPDH, FIG. 5. As for the experimental part: (§1) Human lung fibroblasts were seeded in 24-well plate at 1×10^5 cells/well and incubated in growth medium in the same way as in Test Example 1 overnight. The fibroblasts were washed once with 500 μL of basal medium, and added with 500 μL of basal medium followed by incubation for 24 hours. They were further washed once with 500 μL of basal medium and then 400 μL/well of basal medium was added. A 1, 10 or […] of the compound A prepared by the same manner as in Test Example 3 was added in an amount of 50 μL to each well. For the non-stimulated control group and the control group, DMSO which was diluted 100-fold with basal medium was added in an amount of 50 μL. […] Using the cDNA prepared as above as a template, expressed amount of mRNA for type I collagen al chain (COL 1α1), type I collagen α2 chain (COL 1α2), α smooth muscle actin (ACTA), TGF β1 and glyceraldehydes 3-phosphate dehydrogenase (GAPDH) were measured by means of a real-time quantitative PCR method. The real-time quantitative PCR was conducted using Platinum SYBR Green qPCR Super-Mix-UDG with ROX (manufactured by Invitrogen) and a primer being specific to each gene in accordance with the manual attached to the Platinum SYBR Green qPCR Super-Mix-UDG with ROX using ABI PRISM 7000 (Applied Biosystems). […]

Experiment [4] concerns Human Lung fibroblasts. Put plainly: Proliferation of human lung fibroblasts stimulated by EGF (Test Example 1). Particulars: EGF stimulation, 10 μL of a 100 μM solution per well, 48 hours, FIG. 1. The experiment is classed as cell-based. The method, then: Human Lung fibroblasts (manufactured by Lonza Walkersville; hereinafter, the same product will be used) were cultured in growth medium, which consisted of basal medium for human lung fibroblasts (manufactured by Lonza Walkersville; hereinafter, the same product will be used and referred to as “basal medium”) with FGM-2 additional factor set (manufactured by Lonza Walkersville; hereinafter, the same product will be used) under the condition of 37° C. and 5% CO2. The human lung fibroblasts were seeded in 96-well plate at 1×10^3 cell/well and incubated overnight in growth medium.
The fibroblasts were washed once with 100 μL of phosphate-buffered saline (manufactured by Nissui Seiyaku; hereinafter, the same product will be used) and 100 μL of basal medium was added thereto followed by incubation for 24 hours. They were further washed with 100 μL of phosphate-buffered saline once and then basal medium was added in an amount of 80 μL/well. Ten μL of a 100 μM solution of the compound A or the compound B was added to each well and incubated for 2 hours. […]
After incubating for 48 hours, absorbance at 490 nm was measured using Cell Titer 96, AQueous Assay (manufactured by Promega) for the analysis of cell proliferation activity. For the measurement of the absorbance, a microplate reader (Benchmark, manufactured by Bio-Rad; hereinafter, the same one will be used) was used.

The subject of a further experiment is TGF β1 mRNA. Nature of the experiment: TGF β1 mRNA expression in human lung fibroblasts stimulated by TGF β1, real-time quantitative PCR (Test Example 4). The experiment is classed as cell-based. Particulars: TGF β1 stimulation, 24 hours, corrected for GAPDH, FIG. 7. As for the experimental part: as §1
Experiment [5] relates to Rat renal interstitial cells (NRF 49F cells). Nature of the experiment: Proliferation of rat renal interstitial cells stimulated by PDGF BB, MTT (Test Example 5). To be noted: PDGF BB stimulation, 10 μL of a 100 μM solution per well, 48 hours, FIG. 8. The experiment is classed as cell-based. As for the experimental part:
Rat renal interstitial cells (NRF 49F cells) were seeded in 96-well plate at 1×10^4 cells/well and incubated in an Minimum Essential Medium (MEM medium; manufactured by Nippon Seiyaku; hereinafter, the same product will be used) containing 10% of bovine fetal serum (manufactured by JRH Bioscience; hereinafter, the same product will be used) under the condition of 37° C. and 5% CO2 overnight. The cells were washed once with an MEM medium containing no bovine fetal serum (hereinafter, referred to as “serum-free MEM medium”), and 100 μL of the serum-free MEM medium was added thereto followed by incubation for 24 hours. After washing with serum-free MEM medium once, serum-free MEM medium was added in an amount of 80 μL/well. A 100 μM solution of the compound A prepared by the same method as in Test Example 1 was added in an amount of 10 μL to each well. For the non-stimulated control group and the control group, DMSO which was diluted 100-fold with serum-free MEM medium was added in an amount of 10 μL. […] After incubating for 48 hours, cell proliferation activity (absorbance) was measured by an MTT method in the same way as in Test Example 3. The evaluation of this test was carried out using the value (cell proliferation level) expressed as a relative value where a mean value of absorption of the non-stimulating control group was defined as 1.

The test system of the next experiment is Human skin fibroblasts. Nature of the experiment: Collagen production (PIP) in human skin fibroblasts stimulated by TGF β1 (Test Example 6). The format is cell-based. Particulars: TGF β1 stimulation, 10 μL of 0.1, 1, 10 or 100 μM solution per well, 48 hours, FIG. 9. As for the experimental part:
Human skin fibroblasts (manufactured by Kurabo; hereinafter, the same product will be used) were seeded in 96-well plate at 5×10^3 cells/well and incubated in a Dulbecco's modified Eagle's medium (DMEM medium; manufactured by Nippon Seiyaku; hereinafter, the same product will be used) containing 10% of bovine fetal serum under the condition of 37° C. and 5% CO2 overnight. The human skin fibroblasts were washed once with an DMEM medium containing no bovine fetal serum (hereinafter, referred to as “serum-free DMEM medium”), and 100 μL of serum-free DMEM medium was added thereto followed by incubation for 24 hours. After washing with serum-free DMEM medium once more, serum-free DMEM medium was added in an amount of 80 μL/well. Ten μL of the 0.1, 1, 10 or 100 μM solution of the compound A prepared by the same method as in Test Example 3 was added to each well. […] After incubating for 48 hours, cell proliferation activity (absorbance) was measured by the MTT method, and PIP concentration in the medium was measured in the same way as in Test Example 3. The evaluation of this test was carried out using the value (index for production of collagen) calculated as a relative value where a mean value in the non-stimulated control group was defined as 1 after correcting the measured value of PIP concentration using the cell proliferation activity value (absorbance).

Experiment [6] concerns Human Lung fibroblasts. Put plainly: Proliferation of human lung fibroblasts stimulated by TGF-α (Test Example 2). Particulars: TGF-α stimulation, 10 μL of a 1 μM solution per well, 48 hours, FIG. 2. The experiment is classed as cell-based. The method, then: Human lung fibroblasts were incubated in growth medium under the condition of 37° C. and 5% CO2. The human lung fibroblasts were seeded in 96-well plate at 3×10^3 cell/well and incubated overnight in growth medium.
The fibroblasts were washed once with 100 μL of phosphate-buffered saline. Then basal medium was added thereto and incubation was conducted for 24 hours. They were further washed with 100 μL of phosphate-buffered saline once and then basal medium was added in an amount of 80 μL/well. Ten μL of a 1 μM solution of the compound A was added to each well and incubated for 2 hours. The solution used therefor was prepared in such a manner that the compound A was previously dissolved in DMSO and the resulting 1 mM solution was diluted 100-fold with basal medium. For the non-stimulated control group and the control group, DMSO which was diluted 100-fold with the basal medium was used.
Then a 100 ng/mL solution of transforming growth factor-α (TGF-α) (manufactured by Chemicon) was added in an amount of 10 μL to each well and incubated for 48 hours. For a non-stimulated control group, the basal medium was used.
After incubating for 48 hours, absorbance at 490 nm was measured, in the same way as in Test Example 1, using a reagent for the analysis of cell proliferation activity. For the measurement of the absorbance, a microplate reader was used.

For experiment [7], the system named is type I collagen al chain (COL 1α1) mRNA. Nature of the experiment: COL 1α1 mRNA expression in human lung fibroblasts stimulated by TGF β1, real-time quantitative PCR (Test Example 4). The format is cell-based. To be noted: TGF β1 stimulation, 24 hours, corrected for GAPDH, FIG. 4. As for the experimental part: as §1
In experiment [8] the test system is α smooth muscle actin (ACTA) mRNA. Nature of the experiment: ACTA mRNA expression in human lung fibroblasts stimulated by TGF β1, real-time quantitative PCR (Test Example 4). Particulars: TGF β1 stimulation, 24 hours, corrected for GAPDH, FIG. 6. The experiment is classed as cell-based. The method, then:
as §1

As to `O=C(O)COc1cccc2c1CCC=C2CCO/N=C(\c1ccccc1)c1cccnc1` [ONO-1301], the “effect for interstitial pneumonia” value in [1] is “inhibitive effect”.
As for `CC(C)N(CCCCOCC(=O)O)c1cnc(-c2ccccc2)c(-c2ccccc2)n1` [compound A, 2-{4-[N-(5,6-diphenyl-pyrazin-2-yl)-N-isopropylamino]butyloxy}acetic acid], the “collagen production (index for collagen production, PIP corrected for cell proliferation activity) as compared with the control group” value with Human Lung fibroblasts [2] is on record as “significantly decreased”. The “COL 1α2 mRNA expression level as compared with the control group” value in [3] is given as “decreased”. Further, the “cell proliferation activity (absorbance at 490 nm) as compared with the control group” value with Human Lung fibroblasts [4] and with Human Lung fibroblasts [6] was “significantly decreased” each time. In the experiment with TGF β1 mRNA, the “TGF β1 mRNA expression level as compared with the control group” value is “decreased”. Moreover, the “cell proliferation level as compared with the control group” value in experiment [5] is “significantly decreased”. Moreover, in the experiment on Human skin fibroblasts, the “production of collagen (index for production of collagen, PIP corrected for cell proliferation activity) as compared with the control group” value was “significantly decreased”. For the same compound, in experiment [7], the “COL 1α1 mRNA expression level as compared with the control group” value is on record as “decreased”. For the same compound, the “ACTA mRNA expression level as compared with the control group” value in experiment [8] is “decreased”.
For `CC(C)N(CCCCOCC(=O)NS(C)(=O)=O)c1cnc(-c2ccccc2)c(-c2ccccc2)n1` [compound B, 2-{4-[N-(5,6-diphenylpyrazin-2-yl)-N-isopropylamino]butyl-oxy}-N-(methylsulfonyl)acetamide], the “cell proliferation activity (absorbance at 490 nm) as compared with the control group” value is on record as “significantly decreased” in the experiment with Human Lung fibroblasts [4] and “inhibitive effects” in the experiment with Human Lung fibroblasts [6].
